Target: T1, recombinant human GR (Homo sapiens, UniProt P04150)
T1 construct: purchased Panvera/Invitrogen P2812 (kit P2893)
T1 sequence (P04150 1-777): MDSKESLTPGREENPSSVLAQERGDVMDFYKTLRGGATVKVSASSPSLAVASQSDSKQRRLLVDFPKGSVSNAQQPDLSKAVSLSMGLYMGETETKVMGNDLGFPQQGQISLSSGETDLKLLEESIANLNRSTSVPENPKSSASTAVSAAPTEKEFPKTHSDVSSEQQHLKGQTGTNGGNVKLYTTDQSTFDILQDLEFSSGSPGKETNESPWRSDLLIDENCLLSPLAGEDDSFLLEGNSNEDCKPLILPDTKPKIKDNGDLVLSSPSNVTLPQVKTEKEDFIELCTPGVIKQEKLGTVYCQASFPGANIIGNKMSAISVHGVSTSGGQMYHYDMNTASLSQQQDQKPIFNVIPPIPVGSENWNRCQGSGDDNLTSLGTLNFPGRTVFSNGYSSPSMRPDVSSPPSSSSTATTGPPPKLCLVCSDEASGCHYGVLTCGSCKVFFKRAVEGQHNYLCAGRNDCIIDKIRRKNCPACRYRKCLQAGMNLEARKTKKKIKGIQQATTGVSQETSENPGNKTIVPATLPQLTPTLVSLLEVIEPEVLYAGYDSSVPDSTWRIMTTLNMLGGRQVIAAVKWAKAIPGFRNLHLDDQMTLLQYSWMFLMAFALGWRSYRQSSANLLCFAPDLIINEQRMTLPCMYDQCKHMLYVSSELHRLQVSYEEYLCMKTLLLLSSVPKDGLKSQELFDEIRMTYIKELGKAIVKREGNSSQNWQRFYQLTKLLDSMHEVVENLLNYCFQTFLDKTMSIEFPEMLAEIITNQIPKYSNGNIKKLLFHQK
Test: Human Glucocorticoid Receptor (GR) Assay (fluorescence polarization, Panvera/Invitrogen kit)
Type: binding
Conditions: fluorescence polarization; GS Red tracer; 2 hours at room temperature; 100% control 10 μM Dexamethasone; read-out: Inhibition of GR binding, IC50
Procedure: Human Glucocorticoid Receptor (GR) Assay
The assay is based on a commercial kit from Panvera/Invitrogen (Part number P2893). The assay technology is fluorescence polarization. […] The GR and Stabilizing Peptide reagents are stored at −70° C. while the GS Red is stored at −20° C. Also included in the kit are 1M DTT (Panvera, Part number P2325, stored at −20° C.) and GR Screening buffer 10× (Panvera, Part number P2814, stored at −70° C. initially but once thawed stored at room temperature). Avoid repeated freeze/thaws for all reagents. The GR Screening buffer 10× comprises 100 mM potassium phosphate, 200 mM sodium molybdate, 1 mM EDTA and 20% DMSO.
0% control was 100% DMSO and 100% control was 10 μM Dexamethasone. Background solution (8 μL; assay buffer 10×, Stabilizing Peptide, DTT and ice cold MQ water) was added to the background wells. GS Red solution (7 μL; assay buffer 10×, Stabilizing Peptide, DTT, GS Red and ice cold water) was added to all wells except background wells. GR solution (7 μL; assay buffer 10×, Stabilizing Peptide, DTT, GR and ice cold water) was added to all wells. The plate was sealed and incubated in a dark at room temperature for 2 hours.

Work on `Cc1occc1C(=O)O[C@]1(C(=O)SCC#N)CC[C@H]2[C@@H]3CCC4=Cc5c(cnn5-c5ccc(F)cc5)C[C@]4(C)[C@H]3[C@@H](O)C[C@@]21C` [Example 53, (1R,3aS,3bS,10aR,10bS,11S,12aS)-1-{[(Cyanomethyl)sulfanyl]carbonyl}-7-(4-fluoro-phenyl)-11-hydroxy-10a,12a-dimethyl-1,2,3,3a,3b,4,5,7,10,10a,10b,11,12,12a-tetradecahydrocyclopenta[5,6]naphtho[1,2-f]indazol-1-yl 2-methylfuran-3-carboxylate] yielded an IC50 of 9 nM.
Work on `CC(C)OC(=O)O[C@]1(C(=O)SCC#N)CC[C@H]2[C@@H]3CCC4=Cc5c(cnn5-c5ccc(F)cc5)C[C@]4(C)[C@H]3[C@@H](O)C[C@@]21C` [Example 68, S-(Cyanomethyl)(1R,3aS,3bS,10aR,10bS,11S,12aS)-7-(4-fluorophenyl)-11-hydroxy-10a,12a-dimethyl-1-{[(1-methylethoxy)carbonyl]oxy}-1,2,3,3a,3b,4,5,7,10,10a,10b,11,12,12a-tetradecahydrocyclopenta[5,6]naphtho[1,2-f]indazole-1-carbothioate] yielded an IC50 of 12 nM.
`C[C@]12Cc3cnn(-c4ccc(F)cc4)c3C=C1CC[C@@H]1[C@@H]2[C@@H](O)C[C@@]2(C)[C@H]1CC[C@]2(OC(=O)c1ccco1)C(=O)SCCCC#N` [Example 86, (1R,3aS,3bS,10aR,10bS,11S,12aS)-1-{[(3-Cyanopropyl)sulfanyl]carbonyl}-7-(4-fluorophenyl)-11-hydroxy-10a,12a-dimethyl-1,2,3,3a,3b,4,5,7,10,10a,10b,11,12,12a-tetradecahydrocyclopenta[5,6]naphtho[1,2-f]indazol-1-yl furan-2-carboxylate] showed an IC50 of 3.5 nM.
`CSCSC(=O)[C@@]1(OC(=O)c2ccco2)CC[C@H]2[C@@H]3CCC4=Cc5c(cnn5-c5ccc(F)cc5)C[C@]4(C)[C@H]3[C@@H](O)C[C@@]21C` [Example 82, (1R,3aS,3bS,10aR,10bS,11S,12aS)-7-(4-Fluorophenyl)-11-hydroxy-10a,12a-dimethyl-1-({[(methylsulfanyl)methyl]sulfanyl}carbonyl)-1,2,3,3a,3b,4,5,7,10,10a,10b,11,12,12a-tetradecahydrocyclopenta[5,6]naphtho[1,2-f]indazol-1-yl furan-2-carboxylate] gave an IC50 of 8.5 nM.
`COCC(=O)O[C@]1(C(=O)SCF)CC[C@H]2[C@@H]3CCC4=Cc5c(cnn5-c5ccc(F)cc5)C[C@]4(C)[C@H]3[C@@H](O)C[C@@]21C` [Example 34, (1R,3aS,3bS,10aR,10bS,11S,12aS)-1-{[(Fluoromethyl)thio]carbonyl}-7-(4-fluoro-phenyl)-11-hydroxy-10a,12a-dimethyl-1,2,3,3a,3b,4,5,7,10,10a,10b,11,12,12a-tetradecahydrocyclopenta[5,6]naphtho[1,2-f]indazol-1-yl methoxyacetate] was tested, and the IC50 was 1.7 nM.
`CCC(=O)O[C@]1(C(=O)SCC#CCO)CC[C@H]2[C@@H]3CCC4=Cc5c(cnn5-c5ccc(F)cc5)C[C@]4(C)[C@H]3[C@@H](O)C[C@@]21C` [Example 18, (1R,3aS,3bS,10aR,10bS,11S,12aS)-7-(4-Fluorophenyl)-11-hydroxy-1-{[(4-hydroxy-but-2-yn-1-yl)thio]carbonyl}-10a,12a-dimethyl-1,2,3,3a,3b,4,5,7,10,10a,10b,11,12,12a-tetradecahydrocyclopenta[5,6]naphtho[1,2-f]indazol-1-yl propanoate] showed an IC50 of 4.1 nM.
For `C[C@]12Cc3cnn(-c4ccc(F)c(CO)c4)c3C=C1CC[C@@H]1[C@@H]2[C@@H](O)C[C@@]2(C)[C@H]1CC[C@]2(OC(=O)c1ccco1)C(=O)SCF` [Example 81, (1R,3aS,3bS,10aR,10bS,11S,12aS)-7-[4-Fluoro-3-(hydroxymethyl)phenyl]-1-{[(fluoromethyl)thio]carbonyl}-11-hydroxy-10a,12a-dimethyl-1,2,3,3a,3b,4,5,7,10,10a,10b,11,12,12a-tetradecahydrocyclopenta[5,6]naphtho[1,2-f]indazol-1-yl furan-2-carboxylate], the IC50 was 4.5 nM.
For `COC(=O)[C@@]1(OC(=O)c2ccco2)CC[C@H]2[C@@H]3CCC4=Cc5c(cnn5-c5ccc(F)cc5)C[C@]4(C)[C@H]3[C@@H](O)C[C@@]21C` [Example 66, Methyl (1R,3aS,3bS,10aR,10bS,11S,12aS)-7-(4-fluorophenyl)-1-[(furan-2-yl-carbonyl)oxy]-11-hydroxy-10a,12a-dimethyl-1,2,3,3a,3b,4,5,7,10,10a,10b,11,12,12a-tetradecahydrocyclopenta[5,6]naphtho[1,2-f]indazole-1-carboxylate], the IC50 was 3.3 nM.
`CCC(=O)O[C@]1(C(=O)SCC#N)CC[C@H]2[C@@H]3CCC4=Cc5c(cnn5-c5ccc(F)cc5)C[C@]4(C)[C@H]3[C@@H](O)C[C@@]21C` [Example 10, (1R,3aS,3bS,10aR,10bS,11S,12aS)-1-{[(Cyanomethyl)thio]carbonyl}-7-(4-fluorophenyl)-11-hydroxy-10a,12a-dimethyl-1,2,3,3a,3b,4,5,7,10,10a,10b,11,12,12a-tetradecahydrocyclopenta[5,6]naphtho[1,2-f]indazol-1-yl propionate] gave an IC50 of 3.2 nM.
In the case of `CCC(=O)O[C@]1(C(=O)SCC#N)CC[C@H]2[C@@H]3CCC4=Cc5c(cnn5-c5ccc(F)nc5)C[C@]4(C)[C@H]3[C@@H](O)C[C@@]21C` [Example 97, (1R,3aS,3bS,10aR,10bS,11S,12aS)-1-{[(Cyanomethyl)sulfanyl]carbonyl}-7-(6-fluoropyridin-3-yl)-11-hydroxy-10a,12a-dimethyl-1,2,3,3a,3b,4,5,7,10,10a,10b,11,12,12a-tetradecahydrocyclopenta[5,6]naphtho[1,2-f]indazol-1-yl propanoate], the IC50 is reported as 2.1 nM.
`C[C@]12Cc3cnn(-c4ccc(F)c(CF)c4)c3C=C1CC[C@@H]1[C@@H]2[C@@H](O)C[C@@]2(C)[C@H]1CC[C@]2(OC(=O)c1ccco1)C(=O)SCC#N` [Example 75, (1R,3aS,3bS,10aR,10bS,11S,12aS)-1-{[(Cyanomethyl)thio]carbonyl}-7-[4-fluoro-3-(fluoromethyl)phenyl]-11-hydroxy-10a,12a-dimethyl-1,2,3,3a,3 b,4,5,7,10,10a,10b,11,12,12a-tetradecahydrocyclopenta[5,6]naphtho[1,2-f]indazol-1-yl furan-2-carboxylate] showed an IC50 of 7.2 nM.
Compound `C[C@]12Cc3cnn(-c4ccc(F)nc4)c3C=C1CC[C@H]1[C@@H]3CC[C@](OC(=O)C4CC4)(C(=O)SCC#N)[C@@]3(C)C[C@H](O)[C@@]12F` [Example 207, (1R,3aS,3bS,10aS,10bR,11S,12aS)-1-{[(Cyanomethyl)sulfanyl]carbonyl}-10b-fluoro-7-(6-fluoropyridin-3-yl)-11-hydroxy-10a,12a-dimethyl-1,2,3,3a,3b,4,5,7,10,10a,10b,11,12,12a-tetradecahydrocyclopenta[5,6]naphtho[1,2-f]indazol-1-yl cyclopropanecarboxylate] has an IC50 of 3.3 nM.
For `Cc1ccoc1C(=O)O[C@]1(C(=O)SCF)CC[C@H]2[C@@H]3CCC4=Cc5c(cnn5-c5ccc(F)cc5)C[C@]4(C)[C@H]3[C@@H](O)C[C@@]21C` [Example 57, (1R,3aS,3bS,10aR,10bS,11S,12aS)-1-{[(Fluoromethyl)thio]carbonyl}-7-(4-fluorophenyl)-11-hydroxy-10a,12a-dimethyl-1,2,3,3a,3b,4,5,7,10,10a,10b,11,12,12a-tetradecaphydrocyclopenta[5,6]naphtho[1,2-f]indazol-1-yl 3-methylfuran-2-carboxylate], the IC50 was 3.8 nM.
With `COCc1cc(-n2ncc3c2C=C2CC[C@@H]4[C@H]([C@@H](O)C[C@@]5(C)[C@H]4CC[C@]5(OC(=O)c4ccco4)C(=O)SCF)[C@@]2(C)C3)ccc1F` [Example 74, (1R,3aS,3bS,10aR,10bS,11S,12aS)-7-[4-Fluoro-3-(methoxymethyl)phenyl]-1-{[(fluoromethyl)thio]carbonyl}-11-hydroxy-10a,12a-dimethyl-1,2,3,3a,3b,4,5,7,10,10a,10b,11,12,12a-tetradecahydrocyclopenta[5,6]naphtho[1,2-f]indazol-1-yl furan-2-carboxylate] the IC50 was 22 nM.
